Data from patent US10681909B2, “Herbicidal triazoles” (FMC Corporation, priority 2014, dated 2020).

What was measured:
Conditions in all cases: scale 0 to 100
[1] = tested on: corn; assay: Test E preemergence; format: in vivo, Zea mays
From the text: (§1) Seeds of plant species selected from corn (Zea mays), soybean (Glycine max), lambsquarters (Chenopodium album), poinsettia, wild (wild poinsettia, Euphorbia heterophylla), pigweed, palmer (palmer pigweed, Amaranthus palmeri), waterhemp (common waterhemp, Amaranthus rudis), surinam grass (Brachiaria decumbens), crabgrass, large (large crabgrass, Digitaria sanguinalis), crabgrass, Brazilian (Brazilian crabgrass, Digitaria horizontalis), panicum, fall (fall panicum, Panicum dichotomiflorum), foxtail, giant (giant foxtail, Setaria faberii), foxtail, green (green foxtail, Setaria viridis), goosegrass (Eleusine indica), johnsongrass (Sorghum halepense), ragweed (common ragweed, Ambrosia elatior), barnyardgrass (Echinochloa crus-galli), sandbur (southern sandbur, Cenchrus echinatus), arrowleaf sida (Sida rhombifolia), ryegrass, Italian (Italian ryegrass, Lolium multiflorum), dayflower, VA (Virginia dayflower, Commelina virginica), field bindweed (Convolvulus arvensis), cocklebur (common cocklebur, Xanthium strumarium), morningglory (Ipomoea coccinea), nightshade (eastern black nightshade, Solanum ptycanthum), kochia (Kochia scoparia), nutsedge, yellow (yellow nutsedge, Cyperus esculentus), smartweed (ladysthumb smartweed, Polygonum persicaria), velvetleaf (Abutilon theophrasti), horseweed (Conyza canadensis), and beggarticks (hairy beggarticks, Bidens pilosa), were planted into a silt loam soil and treated preemergence with test chemicals formulated in a non-phytotoxic solvent mixture which included a surfactant.
(§2) At the same time, plants from these crop and weed species and also waterhemp_RES1, (ALS & Triazine resistant common waterhemp, Amaranthus rudis), and waterhemp_RES2, (ALS & HPPD resistant common waterhemp, Amaranthus rudis) were planted in pots containing Sunshine Redi-Earth® planting medium comprising spaghnum peat moss, vermiculite, starter nutrients and dolomitic limestone were treated with postemergence applications of test chemicals formulated in the same manner. Plants ranged in height from 2 to 18 cm for postemergence treatments (1- to 4-leaf stage). Treated plants and controls were maintained in a greenhouse for 14 to 21 d, after which time all species were compared to controls and visually evaluated. Plant response ratings, summarized in Table E, are based on a scale of 0 to 100 where 0 is no effect and 100 is complete control. A dash (-) response means no test result.

[2] = tested on: lambsquarters; assay: Test E preemergence; format: in vivo, Chenopodium album
From the text: as §1, §2

[3] = tested on: crabgrass, large; assay: Test E preemergence; format: in vivo, Digitaria sanguinalis
From the text: as §1, §2

[4] = tested on: foxtail, green; assay: Test E preemergence; format: in vivo, Setaria viridis
From the text: as §1, §2

[5] = tested on: johnsongrass; assay: Test E preemergence; format: in vivo, Sorghum halepense
From the text: as §1, §2

[6] = tested on: sandbur; assay: Test E preemergence; format: in vivo, Cenchrus echinatus
From the text: as §1, §2

[7] = tested on: dayflower, VA; assay: Test E preemergence; format: in vivo, Commelina virginica
From the text: as §1, §2

[8] = tested on: field bindweed; assay: Test E preemergence; format: in vivo, Convolvulus arvensis
From the text: as §1, §2

[9] = tested on: nutsedge, yellow; assay: Test E preemergence; format: in vivo, Cyperus esculentus
From the text: as §1, §2

[10] = tested on: velvetleaf; assay: Test E preemergence; format: in vivo, Abutilon theophrasti
From the text: as §1, §2

[11] = tested on: waterhemp_RES1 (ALS & Triazine resistant common waterhemp); assay: Test E postemergence; format: in vivo, Amaranthus rudis
From the text: as §1, §2

[12] = tested on: waterhemp_RES2 (ALS & HPPD resistant common waterhemp); assay: Test E postemergence; format: in vivo, Amaranthus rudis
From the text: as §1, §2

[13] = tested on: waterhemp; assay: Test E postemergence; format: in vivo, Amaranthus rudis
From the text: as §1, §2

[14] = tested on: sandbur; assay: Test E postemergence; format: in vivo, Cenchrus echinatus
From the text: as §1, §2

[15] = tested on: arrowleaf sida; assay: Test E postemergence; format: in vivo, Sida rhombifolia
From the text: as §1, §2

[16] = tested on: ryegrass, Italian; assay: Test E postemergence; format: in vivo, Lolium multiflorum
From the text: as §1, §2

[17] = tested on: field bindweed; assay: Test E postemergence; format: in vivo, Convolvulus arvensis
From the text: as §1, §2

[18] = tested on: kochia; assay: Test E postemergence; format: in vivo, Kochia scoparia
From the text: as §1, §2

[19] = tested on: beggarticks; assay: Test E postemergence; format: in vivo, Bidens pilosa
From the text: as §1, §2

Measured: Plant response rating

Fc1ccc(-c2nc(OCC(F)(F)F)n(Cc3ccnc(C(F)(F)F)c3)n2)cc1 [Compound 30]
35: [6]; 31 g ai/ha | [14]; 250 g ai/ha
20: [14]; 31 g ai/ha
5: [7]; 31 g ai/ha
100: [2]; 125 g ai/ha | [2]; 250 g ai/ha | [3]; 125 g ai/ha | [3]; 250 g ai/ha | [4]; 62 g ai/ha | [4]; 125 g ai/ha | [4]; 250 g ai/ha | [5]; 250 g ai/ha | [11]; 125 g ai/ha | [15]; 31 g ai/ha | [18]; 125 g ai/ha
0: [1]; 31 g ai/ha | [1]; 62 g ai/ha | [1]; 125 g ai/ha | [9]; 31 g ai/ha | [9]; 62 g ai/ha | [9]; 125 g ai/ha | [9]; 250 g ai/ha
65: [5]; 31 g ai/ha | [5]; 62 g ai/ha | [6]; 62 g ai/ha | [7]; 250 g ai/ha | [8]; 125 g ai/ha | [10]; 62 g ai/ha
98: [2]; 62 g ai/ha | [3]; 31 g ai/ha | [3]; 62 g ai/ha | [5]; 125 g ai/ha | [11]; 62 g ai/ha | [15]; 250 g ai/ha
50: [1]; 250 g ai/ha | [10]; 31 g ai/ha | [16]; 250 g ai/ha | [19]; 31 g ai/ha
95: [4]; 31 g ai/ha | [6]; 250 g ai/ha | [11]; 31 g ai/ha | [11]; 250 g ai/ha | [12]; 31 g ai/ha | [12]; 62 g ai/ha | [12]; 125 g ai/ha | [12]; 250 g ai/ha | [13]; 31 g ai/ha | [13]; 62 g ai/ha | [13]; 125 g ai/ha | [13]; 250 g ai/ha | [15]; 62 g ai/ha | [15]; 125 g ai/ha
25: [7]; 125 g ai/ha | [8]; 62 g ai/ha | [16]; 31 g ai/ha | [16]; 62 g ai/ha
60: [19]; 62 g ai/ha
75: [8]; 250 g ai/ha | [10]; 125 g ai/ha | [17]; 125 g ai/ha | [19]; 250 g ai/ha
90: [2]; 31 g ai/ha | [6]; 125 g ai/ha | [10]; 250 g ai/ha | [18]; 31 g ai/ha | [18]; 62 g ai/ha | [18]; 250 g ai/ha
30: [14]; 62 g ai/ha | [14]; 125 g ai/ha
40: [16]; 125 g ai/ha
70: [17]; 31 g ai/ha | [17]; 62 g ai/ha | [17]; 250 g ai/ha | [19]; 125 g ai/ha
10: [7]; 62 g ai/ha | [8]; 31 g ai/ha
